# Entries after “also recorded” stand apart in the source; their conditions may differ.
# How the values were obtained:
# Format in all cases: in vivo
# [1] = tested on: adults with acute myelogenous leukemia and myelodysplastic syndrome; experiment: Study C15003, phase 1, 3 dose schedules on a 21-day cycle
# [2] = tested on: adults with lymphoma or multiple myeloma; experiment: Study C15002, phase 1, 3 dose schedules on a 21-day cycle
# From the text: Study C15002 is a phase 1 study in adults with lymphoma or multiple myeloma testing 3 dose schedules, each repeated on a 21-day cycle. One such schedule is Schedule A: Days 1, 2, 8, and 9.
# As used herein, “dose-limiting toxicity” (DLT) is defined as any of the following events that are considered by the administering physician to be related to therapy with MLN4924: • Grade 4 neutropenia (ANC<500 cells/mm^3) lasting more than 7 consecutive days • Grade 3 neutropenia with fever and/or infection, where fever is defined as an oral temperature[…] • Grade 4 thrombocytopenia (platelets<25,000/mm^3 but >10,000/mm^3) lasting more than 7 consecutive days • Grade 3 thrombocytopenia with bleeding • A platelet count<10,000/mm^3 at any time • Grade 3 or greater nausea and/or emesis despite the use of optimal anti-emetic prophylaxis (wherein “optimal anti-emetic prophylaxis” is defined as an anti-emetic regimen that employs a 5-HT3 antagonist given in standard doses and according to standard schedules). Dexamethasone should not be used because of its CYP3A-inducing effects. • Grade 3 or greater diarrhea that occurs despite maximal supportive therapy • An absolute reduction in LVEF of ≧10% to a value<50% (e.g., LVEF=45% in a patient with LVEF=55% at baseline) • A decrease in LVEF to <40% • An increase in PASP to >50 mm Hg or 3× baseline • Any other Grade 3 or greater nonhematologic toxicity with the following exceptions: • Grade 3 arthralgia/myalgia • Brief (<1 week) Grade 3 fatigue • Grade 3 fever that occurs in the absence of Grade 3 or worse neutropenia or documented infection following daily administration of MLN4924 • Treatment delay of more than 1 week because of a lack of adequate recovery of MLN4924-related hematological or nonhematologic toxicities • MLN4924-related toxicity that requires that any doses of MLN4924 are missed during a cycle or discontinuation of therapy with MLN4924
# Study C15002 is a phase 1 study in adults with lymphoma or multiple myeloma testing 3 dose schedules, each repeated on a 21-day cycle. Two such schedules are intermittent dosing schedules, Schedule B: Days 1, 4, 8, and 11; and Schedule C: Days 1 and 8. As of Oct. […] Patients on Schedule B were enrolled to dose levels of 110 mg/m^2, 147 mg/m^2, 196 mg/m^2 and 261 mg/m^2 before the MTD was determined to be 196 mg/m^2. […]
# (§1) Although DLTs can occur at any point during treatment, only DLTs occurring during Cycle 1 of treatment will necessarily influence decisions regarding dose escalation, expansion of a dose level, or evaluation of intermediate dose levels. Patients are monitored through all cycles of therapy for treatment-related toxicities.
# [3] = tested on: adults with advanced nonhematologic malignancies (solid tumors); experiment: Study C15001, phase 1, four 21-day dose schedules; conditions: for Findings: Prolonged stable disease in (tumor, cycles): as of Oct. 16, 2011; for DLTs occurred (Grade 3 LFTs): in vivo
# Protocol: Study C15001 is a first-in-human, phase 1 study in adults with advanced nonhematologic malignancies testing the tolerability of four 21-day dose schedules, including the following: Schedule A: QD×5; Schedule B: Days 1, 3, and 5 given with dexamethasone; and Schedule C: Days 1, 3, and 5 given without dexamethasone. Dose escalation is based on an adaptive approach using the continual reassessment method (CRM).
# Schedule A (QD×5) testing started with 25 mg/m^2 and proceeded through 83 mg/m^2. Increases in liver function tests (LFTs) (AST, ALT, ALP and bilirubin) occurred during Cycle 1 following both single and multiple MLN4924 doses. LFT increases were dose limiting at doses exceeding 50 mg/m^2. Grade 3 and 4 LFT elevations occurred in 2 patients, who both died during the first week of study treatment. One death occurred in a patient with widely metastatic breast cancer receiving 61 mg/m^2, and the second occurred in a patient with advanced colon cancer receiving 83 mg/m^2. In both cases, the investigators assessed the hepatic toxicity as possibly related to MLN4924. As a result of these deaths and their association with increases in transaminase and bilirubin, all ongoing MLN4924 studies were amended to require that bilirubin levels be normal (<ULN) and that ALT and AST levels correspond with […] Grade 1 intensity before administering initial and all subsequent doses of MLN4924. LFTs are checked prior to administration of every dose.
# The MTD for Study C15001 Schedule A was determined to be 50 mg/m^2 QD×5. […] Three DLTs have occurred on Schedule B (Grade 3 LFTs), and 2 DLTs have occurred on Schedule C (Grade 3 LFTs). The MTD for these dosing schedules was determined to be 50 mg/m^2 and 67 mg/m^2, respectively. […]
# Study C15001 is a phase 1 study in adults with advanced nonhematologic malignancies testing the tolerability of four 21-day dose schedules, including one intermittent dosing schedule, Schedule D, on which doses are administered on Days 1, 8, and 15 as a 3-hour infusion. As of Oct. […] Patients have been enrolled to the following dose levels: 147 mg/m^2 and 196 mg/m^2. Testing continues, and dose escalation is based on an adaptive approach using the continual reassessment method (CRM). […]
# [4] = tested on: adults with metastatic melanoma; experiment: Study C15005, phase 1 dose-escalation study
# Protocol: As used herein, “dose-limiting toxicity” (DLT) is defined as any of the following events that are considered by the administering physician to be related to therapy with MLN4924: • Grade 4 neutropenia (ANC<500 cells/mm^3) lasting more than 7 consecutive days • Grade 3 neutropenia with fever and/or infection, where fever is defined as an oral temperature[…] • Grade 4 thrombocytopenia (platelets<25,000/mm^3 but >10,000/mm^3) lasting more than 7 consecutive days • Grade 3 thrombocytopenia with bleeding • A platelet count<10,000/mm^3 at any time • Grade 3 or greater nausea and/or emesis despite the use of optimal anti-emetic prophylaxis (wherein “optimal anti-emetic prophylaxis” is defined as an anti-emetic regimen that employs a 5-HT3 antagonist given in standard doses and according to standard schedules). […]
# Study C15005 is a phase 1, dose-escalation study in adults with metastatic melanoma testing MLN4924 dosing on Days 1, 4, 8, and 11 (Schedule A) or Days 1, 8 and 15 (Schedule B) repeated every 21 days. […] Patients were enrolled to dose levels of 50 mg/m^2, 67 mg/m^2, 89 mg/m^2, 118 mg/m^2, 157 mg/m^2, 209 mg/m^2 and 278 mg/m^2 before the MTD was determined to be 209 mg/m^2. […]
# as §1
# [5] = Schedule B: Days 1, 4, 8, 11, at 147 mg/m^2
structure (smiles),measurement,setting,value
"NS(=O)(=O)OC[C@@H]1C[C@@H](n2ccc3c(N[C@H]4CCc5ccccc54)ncnc32)C[C@@H]1O [MLN4924, ((1S,2S,4R)-4-(4-((1S)-2,3-dihydro-1H-inden-1-ylamino)-7H-pyrrolo[2,3-d]-pyrimidin-7-yl)-2-hydroxycyclopentyl)methyl sulfamate]",DLTs,"[1]; Schedule A: Days 1, 3, 5, at 78 mg/m^2",Two DLTs occurred at 78 mg/m^2 (multi-organ failure and reversible elevation of ALT)
same,Kind of DLTs,[1]; [5],"lactic acidosis and hypotension, GI necrosis, and acute renal failure"
same,Number of DLTs,[1]; [5],Four DLTs in three patients
same,MTD (maximum tolerated dose),"[1]; Schedule B: Days 1, 4, 8, 11 of 21-day cycle, AML, MDS",83 mg/m^2
same,Findings,"[2]; Schedule A: Days 1, 2, 8, 9, Hodgkin's Lymphoma (7 cycles)",Partial remission in Hodgkin's
same,Adverse event in one patient (did not contribute to definition of MTD),"[2]; Schedule A, 110 mg/m^2 expansion cohort",Grade 3 AST and ALT elevation
same,DLTs observed,"[2]; Schedule B: Days 1, 4, 8, 11, as of Oct. 7, 2011",no DLTs have been observed
same,DLTs,"[2]; Schedule C: Days 1 and 8, at 196 mg/m^2",One DLT occurred on Schedule C at 196 mg/m^2 (reversible Grade 3 renal failure)
same,Doses at which LFT increases were dose limiting,"[3]; Schedule A (QD×5), Cycle 1, AST, ALT, ALP and bilirubin",exceeding 50 mg/m^2
same,"Grade 3 and 4 LFT elevations, patients who both died during first week of treatment","[3]; Schedule A, one at 61 mg/m^2, one at 83 mg/m^2",2 patients
same,"Dose, MTD not reached (→)","[3]; Schedule D: Days 1, 8, 15, 3-hr infusion, 21-day cycle, solid tumors",≥ 196 mg/m^2
same,"Findings: Prolonged stable disease in (tumor, cycles)","[3]; Schedule D: Days 1, 8, 15, 3-hr infusion",Colon cancer (6+ cycles); also recorded: NSCLC^5 (5+ cycles)
same,"Findings: Prolonged stable disease in (tumor, cycles)","[3]; Schedules A, B, C (findings cell spans the three schedules)","Melanoma (7, 7, 10 cycles); also recorded: SCLC^5 (7 cycles),; also recorded: CRC^5 (5, 5, 9 cycles),; also recorded: Breast (5, 7 cycles); also recorded: Head and Neck (7 cycles)"
same,DLTs occurred (Grade 3 LFTs),"[3]; human, 21 days",2
same,DLTs occurred (Grade 3 LFTs),[3],Three DLTs
same,"Findings: Prolonged stable disease in (tumor, cycles)","[4]; Schedule A: Days 1, 4, 8, 11","Melanoma (5, 6, 6, 6, 10, 12 cycles)"
same,"Findings: Prolonged stable disease in (tumor, cycles)","[4]; Schedule B: Days 1, 8, 15",Melanoma (11+ cycles)
same,Number of DLTs,[4]; in vivo,two DLTs have occurred
